{
  "source": "patent US20070166380A1",
  "about": "“ZOLPIDEM TABLETS” (priority 2005, published 2007)",
  "origin": "cited, not measured here",
  "conditions": "after ingestion of the tablet",
  "data": [
    {"compound": "Cc1ccc(-c2nc3ccc(C)cn3c2CC(=O)N(C)C)cc1", "note": "[zolpidem, N,N,6-trimethyl-2-(4-methylphenyl)-imidazo [1,2-s]pyridine-3-acetamide]", "values": [
      {"measurement": "time until zolpidem starts acting", "setting": "'or less'", "value": "15 to 30", "unit": "min"},
      {"measurement": "duration of action", "setting": "approximately", "value": "4 to 6", "unit": "h"}
    ]}
  ]
}
